Earlier results, collected in patent US11136251B2, “Compositions, methods, and devices for capturing phosphate from water” (REGENTS OF THE UNIVERSITY OF MINNESOTA, priority 2017, dated 2021).

For O=C([O-])CN(CCN(CC(=O)[O-])CC(=O)O)CCN(CC(=O)[O-])CC(=O)O.[Gd+3] [Gd-DTPA], the “selectivity for HPO4^2− over HCO3^− / bicarbonate binding” value is given as “two-fold”.
